Values of other authors, collected in patent US20090241222A1, “TANDEM REAPEAT DNA CONSTRUCTS PRODUCING PROTEINS THAT ATTACK PLANT PATHOGENIC VIRUSES, FUNGI, AND BACTERIA BY DISRUPTING TRANSCRIPTION FACTORS ESSENTIAL FOR REPLICATION THEREOF IN PLANTS” (priority 2008, published 2009).

System: Magnaporthe grisea
Details: PA treated plants; cited from earlier work

O=C(O)c1ccccn1 [picolinic acid, 2-pyridine carboxylic acid]
resistance against M. grisea: enhanced
